Counter-ions that a name gives are not always drawn.
Experiments:
HCT116 cells = test: Inhibition of proliferation of the HCT116 human colon tumor line ([14C]-thymidine incorporation); format: cell-based; conditions: HCT-116, 48 hours incubation at 37° C., read-out: Inhibition of HCT116 proliferation IC 50
Description: Test for Determining the Inhibition of Proliferation of the HCT116 Human Colon Tumor Line
The proliferation of HCT116 cells is evaluated by mesuring the incorporation of [^14C]-thymidine in the following way. The HCT166 cells (from the ATCC) are cultured in a DMEM medium (Gibco) which contains 10% of fetal calf serum and antibiotics (1% penicillin, 1% streptomycin). To perform the proliferation test, the cells are seeded into 96-well cytostar microplates (Amersham) at the rate of 5000 cells per well. The [^14C]-thymidine (0.1 μCi/well) and the products to be evaluated are subsequently added. Variable concentrations of products up to 10 μM are used; the DMSO (solvent used to dissolve the products) should not exceed 0.5% in the medium. 48 hours after incubation at 37° C., the radioactivity incorporated into the cells is measured by counting the plate in a Tri-Lux counter (Wallac). The IC50 is defined as the concentration of product which reduces the radioactivity by 50% compared with an untreated control. A product with an IC50 of less than 10 μm is regarded as cytotoxic.

[1] = biological target: T1, Tubulin purified from pig brains (Sus scrofa, UniProt P02550+P02554); test: Assessment of the inhibition of tubulin polymerization (turbidimetry at 350 nm); format: biochemical; conditions: concentration which inhibits the rate of polymerization by 50%; tubulin 1 mg/ml, 37° C.; read-out: Inhibition of tubulin polymerization IC 50
T1 construct: Tubulin is purified from pig brains according to published methods; from tissue; host or cells: pig brain
T1 sequence (P02550 whole entry): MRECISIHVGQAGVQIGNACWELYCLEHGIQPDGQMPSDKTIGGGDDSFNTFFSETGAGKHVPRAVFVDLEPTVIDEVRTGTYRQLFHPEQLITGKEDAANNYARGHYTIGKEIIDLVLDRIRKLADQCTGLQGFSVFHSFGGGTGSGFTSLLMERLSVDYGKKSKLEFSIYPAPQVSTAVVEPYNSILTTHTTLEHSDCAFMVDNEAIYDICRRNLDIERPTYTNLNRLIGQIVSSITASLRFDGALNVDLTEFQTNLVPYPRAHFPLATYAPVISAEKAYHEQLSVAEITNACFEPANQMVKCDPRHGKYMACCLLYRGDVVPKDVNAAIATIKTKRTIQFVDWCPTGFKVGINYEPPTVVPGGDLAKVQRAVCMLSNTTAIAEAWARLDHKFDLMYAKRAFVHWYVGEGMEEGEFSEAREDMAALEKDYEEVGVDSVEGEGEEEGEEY
T1 sequence (P02554 whole entry): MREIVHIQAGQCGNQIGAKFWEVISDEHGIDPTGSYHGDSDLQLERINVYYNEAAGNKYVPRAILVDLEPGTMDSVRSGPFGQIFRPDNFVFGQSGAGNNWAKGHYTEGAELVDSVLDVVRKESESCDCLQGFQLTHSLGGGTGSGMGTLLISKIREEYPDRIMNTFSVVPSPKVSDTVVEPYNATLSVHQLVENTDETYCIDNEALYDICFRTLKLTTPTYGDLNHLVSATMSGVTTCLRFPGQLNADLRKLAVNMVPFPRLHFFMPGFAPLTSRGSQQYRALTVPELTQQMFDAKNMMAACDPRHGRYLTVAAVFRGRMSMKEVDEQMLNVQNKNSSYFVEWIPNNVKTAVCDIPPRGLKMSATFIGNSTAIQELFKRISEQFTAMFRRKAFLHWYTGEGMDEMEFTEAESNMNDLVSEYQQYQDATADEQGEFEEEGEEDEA
Summary of the method: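 Pig brain tubulin, >95% pure after polymerization/depolymerization cycles and phosphocellulose removal of MAPs, used at 10 μm in MES pH 6.8/30% glycerol buffer with 1 mM GTP and 6 mM MgCl2. Compounds at 0.5–10 μm were added before a 6→37 °C shift triggered assembly, followed by turbidity at 350 nm. IC50 is the concentration halving polymerization rate.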

Row | SMILES | melting point [°C] | IC50 (HCT116 cells) [nM] | IC50 [1] [nM]
1 | N#Cc1cccc(N2CCN(C(=O)c3cc[nH]c3-c3ccccc3)CC2)c1 [Example 74, 3-[4-(2-Phenyl-1H-pyrrol-3-ylcarbonyl)piperazin-1-yl]benzonitrile] | 80 | 52 | 3050
2 | N#Cc1cccc(N2CCN(C(=O)c3ccn(CCO)c3-c3ccccc3)CC2)c1 [Example 81, 3-[4-(1-Hydroxyethyl-2-phenyl-1H-pyrrol-3-ylcarbonyl)piperazin-1-yl]-benzonitrile] | 158 | 307 | 2400
3 | N#Cc1cccc(N2CCN(C(=O)c3[nH]c(S)nc3-c3ccccc3)CC2)c1 [Example 52, 3-[4-(2-Mercapto-4-phenyl-1H-imidazol-5-yl-carbonyl)piperazin-1-yl]-benzonitrile] | 247 | 100 | 400
4 | N#Cc1cccc(N2CCN(C(=O)c3[nH]c(O)nc3-c3ccccc3)CC2)c1 [Example 75, 3-[4-(2-Hydroxy-4-phenyl-1H-imidazol-5-ylcarbonyl)piperazin-1-yl]-benzonitrile] | 198 | 11.5 | 1010
5 | Nc1nc(-c2ccccc2)c(C(=O)N2CCN(c3cccc(CO)c3)CC2)s1 [Example 88, [4-(3-Hydroxymethylphenyl)piperazin-1-yl](2-amino-4-phenylthiazol-5-yl)-methanone] | 176 | – | 715
6 | NC(=O)c1cccc(N2CCN(C(=O)c3nc(O)[nH]c3-c3ccccc3)CC2)c1 [Example 51, 3-[4-(2-Hydroxy-4-phenyl-1H-imidazol-5-yl-carbonyl)piperazin-1-yl]benzamide] | 202 | 1360 | 500
7 | COc1cc(OC)cc(N2CCN(C(=O)c3[nH]cnc3-c3ccccc3)CC2)c1 [Example 9, [4-(3,5-Dimethoxyphenyl)piperazin-1-yl](4-phenyl-1H-imidazol-5-yl)-methanone] | 196 | 1.3 | 600
8 | CS(=O)(=O)c1nc(-c2ccccc2)c(C(=O)N2CCN(c3cccc(C#N)c3)CC2)[nH]1 [Example 70, 3-[4-(2-Methylsulfonyl-4-phenyl-1H-imidazol-4-ylcarbonyl)piperazin-1-yl]benzonitrile] | 198 | – | 3750
9 | NC(=O)c1cccc(N2CCN(C(=O)c3sc(N)nc3-c3ccccc3)CC2)c1 [Example 85, 3-[4-(2-Amino-4-phenyl-thiazol-5-ylcarbonyl)piperazin-1-yl]benzamide] | 236 | – | 685
10 | COc1cc(OC)cc(N2CCN(C(=O)c3ccn(C(C)=O)c3-c3ccccc3)CC2)c1 [Example 63, [4-(3,5-Dimethoxyphenyl)piperazin-1-yl](1-acetyl-2-phenyl-1H-pyrrol-3-yl)methanone] | 150 | – | 4000
11 | COc1cc(OC)cc(N2CCN(C(=O)c3[nH]c(C)nc3-c3ccccc3)CC2)c1 [Example 43, [4-(3,5-Dimethoxyphenyl)piperazin-1-yl](2-methyl-5-phenyl-3H-imidazol-4-yl)methanone] | – | 7.1 | 600
12 | NC(=O)c1cccc(N2CCN(C(=O)c3c[nH]cc3-c3ccccc3)CC2)c1 [Example 58, 3-[4-(4-Phenyl-1H-pyrrol-3-ylcarbonyl)piperazin-1-yl]benzamide] | – | 334 | 4450
13 | N#Cc1cccc(N2CCN(C(=O)c3c[nH]cc3-c3ccccc3)CC2)c1 [Example 61, 3-[4-(4-Phenyl-1H-pyrrol-3-ylcarbonyl)piperazin-1-yl]benzonitrile] | – | 40 | 2320
14 | COc1cc(OC)cc(N2CCN(C(=O)c3[nH]c(O)nc3-c3ccccc3)CC2)c1 [Example 28, [4-(3,5-Dimethoxyphenyl)piperazin-1-yl](2-hydroxy-5-phenyl-1H-imidazol-4-yl)methanone] | 130 | 1.5 | 1100
15 | O=C(c1[nH]c(O)nc1-c1ccccc1)N1CCN(c2cccc(CO)c2)CC1 [Example 57, [4-(3-Hydroxymethylphenyl)piperazin-1-yl](2-hydroxy-4-phenyl-1H-imidazol-5-yl)methanone] | 173 | 17 | 795
16 | Cc1nc(-c2ccccc2)c(C(=O)N2CCN(c3cccc(C#N)c3)CC2)[nH]1 [Example 60, 3-[4-(2-Methyl-5-phenyl-1H-imidazol-4-ylcarbonyl)piperazin-1-yl]benzonitrile] | – | 11 | 990
17 | COc1cccc(N2CCN(C(=O)c3[nH]cnc3-c3ccccc3)CC2)c1 [Example 29, [4-(3-Methoxyphenyl)piperazin-1-yl](4-phenyl-1H-imidazol-5-yl)methanone] | – | 3 | 400
18 | O=C(c1c[nH]cc1-c1ccccc1)N1CCN(c2cccc(Cl)c2)CC1 [Example 15, [4-(3-Chlorophenyl)piperazin-1-yl](4-phenyl-1H-pyrrol-3-yl)methanone] | – | 731 | 2900
19 | CSc1nc(-c2ccccc2)c(C(=O)N2CCN(c3cccc(CO)c3)CC2)[nH]1 [Example 79, [4-(3-Hydroxymethylphenyl)piperazin-1-yl](2-methylsulfanyl-4-phenyl-1H-imidazol-5-yl)methanone] | – | 11.7 | 493
20 | O=C(c1cncn1-c1ccccc1)N1CCN(c2cccc(Cl)c2)CC1 [Example 1, [4-(3-Chlorophenyl)piperazin-1-yl](1-phenyl-1H-imidazol-5-yl)methanone] | – | 29.6 | 2000
21 | COc1cc(OC)cc(N2CCN(C(=O)c3cn(C)cc3-c3ccccc3)CC2)c1 [Example 18, [4-(3,5-Dimethoxyphenyl)piperazin-1-yl](1-methyl-4-phenyl-1H-pyrrol-3-yl)methanone hydrochloride] | – | 3.8 | 970
22 | N#Cc1cccc(N2CCN(C(=O)c3sc(N)nc3-c3ccccc3)CC2)c1 [Example 82, 3-[4-(2-Amino-4-phenylthiazol-5-ylcarbonyl)piperazin-1-yl]benzonitrile] | 246 | – | 294
23 | CSc1nc(-c2ccccc2)c(C(=O)N2CCN(c3cccc(C(N)=O)c3)CC2)[nH]1 [Example 55, 3-[4-(2-Methylsulfanyl-4-phenyl-1H-imidazol-5-ylcarbonyl)piperazin-1-yl]-benzamide] | – | 64 | 1380
24 | O=C(c1cc[nH]c1-c1ccccc1)N1CCN(c2cccc(Cl)c2)CC1 [Example 26, [4-(3-Chlorophenyl)piperazin-1-yl](2-phenyl-1H-pyrrol-3-yl)methanone] | – | 75.2 | 3200
25 | COc1cc(OC)cc(N2CCN(C(=O)c3ccn(CCO)c3-c3ccccc3)CC2)c1 [Example 53, [4-(3,5-Dimethoxyphenyl)piperazin-1-yl][1-(2-hydroxyethyl)-2-phenyl-1H-pyrrol-3-yl]methanone] | 157 | 46 | 810
26 | COc1cc(OC)cc(N2CCN(C(=O)c3ccn(C)c3-c3ccccc3)CC2)c1 [Example 27, [4-(3,5-Dimethoxyphenyl)piperazin-1-yl](1-methyl-2-phenyl-1H-pyrrol-3-yl)-methanone] | 130 | 15.1 | 1900
27 | O=C(c1nc(S)[nH]c1-c1ccccc1)N1CCN(c2cccc(Cl)c2)CC1 [Example 19, [4-(3-Chlorophenyl)piperazin-1-yl](2-mercapto-5-phenyl-1H-imidazol-4-yl)-methanone] | > 260 | 28.7 | 750

— patent US20050014765A1, “Aryl-heteroaromatic products, compositions comprising them and use” (Aventis Pharma S.A., priority 2003, published 2005)
